Each structure is given as a SMILES string. In brackets after ≈: the same amount, converted by molar mass.

As a reminder, the solubility is how much of the substance goes into solution per volume. A low value points to a poorly soluble substance.

For the first series the following is noted: 25 °C.
As for `CCCCCCCCCCO`, the solubility came out at 0.234 mM (≈ 37 µg/mL).
`CC=CC(O)CC` (stereo not drawn) yielded a solubility of 380 mM (≈ 38100 µg/mL).
On the same count and under the same terms, the result for `CCC[C@](C)(O)CC` reads 101 mM (≈ 11700 µg/mL); that for `CC(C)C(C)O` (stereo not drawn), 635 mM (≈ 56000 µg/mL).
In the case of `CCCC(O)CCC`, the solubility is 40.4 mM (≈ 4700 µg/mL).
The compound `CCCCC(C)(C)O` had a solubility of 83.5 mM (≈ 9700 µg/mL).
On the same count and under the same terms, the result for `CC(C)CCCO` reads 73.4 mM (≈ 7500 µg/mL); that for `C=CC(O)C(C)C` (stereo not drawn), 305 mM (≈ 30600 µg/mL).
As for `CC(C)(C)CCCO`, the solubility was 28.5 mM (≈ 3310 µg/mL).
With `CCCCCCCCO`, the solubility is 4.15 mM (≈ 540 µg/mL).
Still for that read-out and setting: the result for `CC(C)CCC(C)O` (stereo not drawn) reads 41.9 mM (≈ 4870 µg/mL).

The series is the same for the next values; noted with them: 28 °C.
With `CCCCC(C)(O)CC` (stereo not drawn), the solubility came out at 23.2 mM (≈ 3020 µg/mL).

The same series, now with this note: 30 °C.
Turning to `CCCCCC(C)(C)O`, the solubility stood at 19.1 mM (≈ 2490 µg/mL).
